Laboratory results reported in paper PMC10688702, “The indole motif is essential for the antitrypanosomal activity of N^5-substituted paullones” (PLOS ONE, 2023).
Where a name gives a salt, the structure may show the parent alone.

Columns and labels:
[1] = test system: L. infantum amastigotes (intracellular, in J774.A1 macrophages); assay: Viability assay for L. infantum amastigotes; format: cell-based; conditions: Leishmania infantum, J774.A1, 24 h, read-out: L. infantum amastigote viability [% at 20 μM]
Method: Viability assay for L. infantum amastigotes. L. infantum promastigotes from the reference strain MHOM/MA/67/ITMAP263, stably transfected with a vector encoding a red-shifted luciferase gene (RE9HLUC; Branchini et al.; Benítez et al.) were grown in fresh complete RPMI medium (RPMI basic medium containing 25 mM HEPES, 10% v/v iFBS, 100 U/mL penicillin, 100 μg/mL streptomycin and 15 μg/mL hygromycin B) at 28°C in sealed culture flasks. Metacyclic promastigotes were obtained by a negative selection procedure using peanut agglutinin and used to infect murine macrophages (cell line J774.A1) at a 1:10 ratio for macrophages (5×10^6 cells): parasites (5×10^7 cells). 200 μL of this suspension was added per well to a 96-well culture microplate, which was then incubated at 37°C for 24 h in a 5% CO2/95% air atmosphere incubator. […] The culture microplate was incubated in the CO2 incubator for additional 24 h. Next, the supernatant was removed and the microplate wells were washed with pre-warmed PBS (200 μL). […] All conditions were tested in triplicates and the percentage amastigote viability was calculated as described for infective T. b. brucei, with errors expressed as one SD, estimated as σ^n-1.
A macrophage cell density correction factor based on the incorporation of propidium iodide was calculated and applied to normalise amastigote viability related to host cell density in the well. For a detailed explanation of the protocol, see Benítez et al..

[2] = biological target: trypanothione synthetase of L. infantum (LiTryS) (Leishmania infantum, UniProt A4I2Z3); assay: TryS activity screening assay on recombinant LiTryS; format: biochemical; conditions: read-out: LiTryS activity [% at 30 μM]
Chain of trypanothione synthetase of L. infantum (LiTryS) (A4I2Z3 entry or part of it): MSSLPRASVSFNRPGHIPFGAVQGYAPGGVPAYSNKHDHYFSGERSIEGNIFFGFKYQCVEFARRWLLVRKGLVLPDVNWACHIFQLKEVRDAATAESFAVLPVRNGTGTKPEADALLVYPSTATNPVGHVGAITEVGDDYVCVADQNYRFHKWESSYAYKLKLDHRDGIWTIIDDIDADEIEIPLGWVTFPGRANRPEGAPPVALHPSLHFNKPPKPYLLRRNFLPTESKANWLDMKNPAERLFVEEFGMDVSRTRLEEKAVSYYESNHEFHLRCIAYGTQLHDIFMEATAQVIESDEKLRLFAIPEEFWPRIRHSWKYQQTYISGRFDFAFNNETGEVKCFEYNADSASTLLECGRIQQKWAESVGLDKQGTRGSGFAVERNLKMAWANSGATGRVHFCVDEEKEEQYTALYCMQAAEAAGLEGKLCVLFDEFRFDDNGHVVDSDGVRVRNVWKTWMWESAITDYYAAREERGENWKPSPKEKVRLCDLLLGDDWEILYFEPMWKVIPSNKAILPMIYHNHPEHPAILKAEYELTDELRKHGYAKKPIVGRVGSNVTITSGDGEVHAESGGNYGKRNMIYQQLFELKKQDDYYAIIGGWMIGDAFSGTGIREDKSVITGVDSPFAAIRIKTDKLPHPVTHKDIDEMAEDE
Method: TryS from different trypanosomatids was produced in recombinant form with an N-terminal His-tag. The constructs pET-15b TbTryS and pET-28c(+)LiTryS were used to express TryS of T. b. brucei 427 (MITat1.4, GenBank accession protein id CAC87573.1), and L. infantum JPCM5 (GenBank accession protein id CAM69145.1). E. coli strain BL21 (DE3) served as the expression host. For TbTryS, the cells were cultured in a medium based in Terrific Broth and induction with isopropyl 1-thio-β-D-galactopyranoside (IPTG), while for LiTryS, the cells were cultured in ZYM-5052 auto-induction medium. For a detailed description of the expression, see Benítez et al.. The purification was performed by immobilised metal affinity chromatography in a HisTrap Fast Flow column (GE Healthcare) followed by size exclusion chromatography. […] The fractions containing recombinant TryS with ≥95% purity were pooled and concentrated to >10 mg protein/mL using a 10 kDa cut-off Amicon filter (Millipore, Billerica, CA). Glycerol was added at a final concentration of 40% (v/v). The samples were stored at -80°C. Enzyme purity and activity were assessed by SDS-PAGE (12%) under reducing conditions and by the end-point TryS assay (see TryS activity screening assay), respectively. Protein concentration was determined using the bicinchoninic acid assay with bovine serum albumin as standard. The protocols yielded 25–30 mg TbTryS or LiTryS per litre of culture medium and homogeneous specific activity.
For all TryS, ATP was used at 150 μM because of a high background signal at higher concentrations and Spd fixed at 2 mM, in agreement with the intracellular levels calculated from data reported in the literature for trypanosomatids. GSH was adjusted to 0.05 and 0.25 mM for TbTryS and LiTryS, respectively, to avoid substrate inhibition or to approach physiological concentrations. […] Microtiter plate wells were loaded with 5 μL of the test compound, DMSO (reaction control) or a TryS specific inhibitor (inhibition control) and 40 μL of MM solution. The reactions were then started by adding 5 μL of TryS (2 and 3*10^−5 μmol*min^-1*mL^-1 for LiTryS and TbTryS, respectively) and stopped after 15 min with 200 μL BIOMOL® GREEN reagent (Enzo Life Sciences). The compounds used as inhibition control were added at concentrations that inhibited 50% TryS activity: 30 μM and 150 nM MOL2008 for TbTryS and LiTryS, respectively. Blanks were prepared for each condition by adding 5 μL of screening reaction buffer instead of the enzyme. The TryS activity is calculated as follows: TrySactivity%=A650nmCi-A650nmCiB/A650nmE-A650nmEB*100%
A650 nm Ci is the mean absorbance at 650 nm for the reaction test with compound I (Ci), A650 nm CiB is the mean absorbance at 650 nm for the blank control with compound I (CiB), A650 nm E is the mean absorbance at 650 nm for the reaction control with DMSO (E) and A650 nm EB is the mean absorbance at 650 nm for the blank control with DMSO (EB). The errors were expressed as 2 standard deviations (SD), SD estimated as σ^n−1.

## CC(C)(C)OC(=O)N1CCN(CCNC(=O)CN2C(=O)CCCc3ccccc32)CC1 [2b, tert-Butyl 4-{2-[2-(2-oxo-2,3,4,5-tetrahydro-1H-benzo[b]azepin-1-yl)acetamido]ethyl}piperazine-1-carboxylate]
[1]
  viability at 20 µM: 89.5 ± 9.9%
[2]
  activity at 30 µM: 91.4 ± 3.1%

## CC(C)(C)OC(=O)NCCNC(=O)CN1C(=O)CCCc2ccccc21 [2c, tert-Butyl {2-[2-(2-oxo-2,3,4,5-tetrahydro-1H-benzo[b]azepin-1-yl)acetamido]ethyl}carbamate]
[2]
  activity at 30 µM: 96.7 ± 7.5%

## CC(C)(C)OC(=O)N1CCN(C(=O)CN2C(=O)CCCc3ccccc32)CC1 [2d, tert-Butyl 4-[2-(2-oxo-2,3,4,5-tetrahydro-1H-benzo[b]azepin-1-yl)acetyl]piperazine-1-carboxylate]
[2]
  activity at 30 µM: 108 ± 14.6%

## CN(CCNC(=O)CN1C(=O)CCCc2ccccc21)C(=O)OC(C)(C)C [2e, tert-Butyl methyl-{2-[2-(2-oxo-2,3,4,5-tetrahydro-1H-benzo[b]azepin-1-yl)acetamido]ethyl}carbamate]
[2]
  activity at 30 µM: 92.5 ± 37.2%

## CC(C)(C)OC(=O)NCCCCNC(=O)CN1C(=O)CCCc2ccccc21 [2f, tert-Butyl {4-[2-(2-oxo-2,3,4,5-tetrahydro-1H-benzo[b]azepin-1-yl)acetamido]butyl}carbamate]
[2]
  activity at 30 µM: 83.6 ± 8.7%

## CC(C)(C)OC(=O)NC1CCN(C(=O)CN2C(=O)CCCc3ccccc32)CC1 [2g, tert-Butyl {1-[2-(2-oxo-2,3,4,5-tetrahydro-1H-benzo[b]azepin-1-yl)acetyl]piperidine-4-yl}carbamate]
[2]
  activity at 30 µM: 93.3 ± 6.1%

## O=C(CN1C(=O)CCCc2ccccc21)N1CCOCC1 [2h, 1-(2-Morpholino-2-oxoethyl)-1,3,4,5-tetrahydro-2H-benzo[b]azepin-2-one]
[2]
  activity at 30 µM: 92.7 ± 9.2%

## O=C(CN1C(=O)CCCc2ccccc21)N1CCCCC1 [2i, 1-[2-Oxo-2-(piperidin-1-yl)ethyl]-1,3,4,5-tetrahydro-2H-benzo[b]azepin-2-one]
[2]
  activity at 30 µM: 89.4 ± 4.6%

## CCN(CC)C(=O)CN1C(=O)CCCc2ccccc21 [2k, N,N-Diethyl-2-(2-oxo-2,3,4,5-tetrahydro-1H-benzo[b]azepin-1-yl)acetamide]
[2]
  activity at 30 µM: 92.9 ± 6.4%

## NCCNC(=O)CN1C(=O)CCCc2ccccc21 [2p, N-(2-Aminoethyl)-2-(2-oxo-2,3,4,5-tetrahydro-1H-benzo[b]azepin-1-yl)acetamide hydrochloride]
[2]
  activity at 30 µM: 82.4 ± 9.5%

## CNCCNC(=O)CN1C(=O)CCCc2ccccc21 [2r, N-[2-(Methylamino)ethyl]-2-(2-oxo-2,3,4,5-tetrahydro-1H-benzo[b]azepin-1-yl)acetamide hydrochloride]
[2]
  activity at 30 µM: 88.9 ± 10.4%

## NCCCCNC(=O)CN1C(=O)CCCc2ccccc21 [2s, N-(4-Aminobutyl)-2-(2-oxo-2,3,4,5-tetrahydro-1H-benzo[b]azepin-1-yl)acetamide hydrochloride]
[2]
  activity at 30 µM: 104 ± 5.3%

## O=C(CN1C(=O)CCCc2ccccc21)NCCN1CCOCC1 [2t, N-(2-Morpholinoethyl)-2-(2-oxo-2,3,4,5-tetrahydro-1H-benzo[b]azepin-1-yl)acetamide hydrochloride]
[1]
  viability at 20 µM: 71.2 ± 1.5%
[2]
  activity at 30 µM: 91 ± 3.9%

## CN1CCN(CCNC(=O)CN2C(=O)CCCc3ccccc32)CC1 [2u, N-[2-(4-Methylpiperazin-1-yl)ethyl]-2-(2-oxo-2,3,4,5-tetrahydro-1H-benzo[b]azepin-1-yl)acetamide dihydrochloride]
[1]
  viability at 20 µM: 85 ± 10.6%
[2]
  activity at 30 µM: 106 ± 9.8%

## CN1CCN(C(=O)CN2C(=O)CCCc3ccccc32)CC1 [2v, 1-[2-(4-Methylpiperazin-1-yl)-2-oxoethyl]-1,3,4,5-tetrahydro-2H-benzo[b]azepin-2-one hydrochloride]
[1]
  viability at 20 µM: 72.4 ± 0.3%
[2]
  activity at 30 µM: 98.2 ± 13.7%

## CC(C)(C)OC(=O)N1CCN(CCNC(=O)CN2C(=O)C(C)(C)CCc3ccccc32)CC1 [3b, tert-Butyl 4-{2-[2-(3,3-dimethyl-2-oxo-2,3,4,5-tetrahydro-1H-benzo[b]azepin-1-yl)acetamido]ethyl}piperazine-1-carboxylate]
[1]
  viability at 20 µM: 94.8 ± 2.5%
[2]
  activity at 30 µM: 107 ± 12.6%

## CN(CCNC(=O)CN1C(=O)C(C)(C)CCc2ccccc21)C(=O)OC(C)(C)C [3c, tert-Butyl {2-[2-(3,3-dimethyl-2-oxo-2,3,4,5-tetrahydro-1H-benzo[b]azepin-1-yl)acetamido]ethyl}(methyl)carbamate]
[2]
  activity at 30 µM: 104 ± 7.1%

## CNCCNC(=O)CN1C(=O)C(C)(C)CCc2ccccc21 [3e, 2-(3,3-Dimethyl-2-oxo-2,3,4,5-tetrahydro-1H-benzo[b]azepin-1-yl)-N-[2-(methylamino)ethyl]acetamide hydrochloride]
[2]
  activity at 30 µM: 99.8 ± 7.1%

## CN(CCNC(=O)CN1C(=O)Cc2ccccc2-c2ccccc21)C(=O)OC(C)(C)C [4c, tert-Butyl N-methyl-{2-[2-(6-oxo-6,7-dihydro-5H-dibenzo[b,d]azepin-5-yl)acetamido]ethyl}carbamate]
[2]
  activity at 30 µM: 87.6 ± 4.6%

## CO/N=C1\CCC(=O)N(CC(=O)NCCN2CCN(C(=O)OC(C)(C)C)CC2)c2ccccc21 [5b, tert-Butyl (E/Z)-4-(2-{2-[5-(methoxyimino)-2-oxo-2,3,4,5-tetrahydro-1H-benzo[b]azepin-1-yl]acetamido}ethyl)piperazine-1-carboxylate]
[1]
  viability at 20 µM: 93 ± 9.3%
[2]
  activity at 30 µM: 97.8 ± 13.3%

## O=C(O)CN1C(=O)Cc2ccccc2-c2ccccc21 [compound 19, 2-(6-Oxo-6,7-dihydro-5H-dibenzo[b,d]azepin-5-yl)acetic acid]
[2]
  activity at 30 µM: 97.8 ± 6.1%

## CO/N=C1\CCC(=O)Nc2ccccc21 [compound 20, (E)-5-methoxyimino-1,3,4,5-tetrahydro-2H-benzo[b]azepin-2-one]
[2]
  activity at 30 µM: 102 ± 2.4%

## CO/N=C1\CCC(=O)N(CC(=O)OC(C)(C)C)c2ccccc21 [compound 21, tert-Butyl (E/Z)-2-(5-(methoxyimino)-2-oxo-2,3,4,5-tetrahydro-1H-benzo[b]azepin-1-yl)acetate]
[2]
  activity at 30 µM: 92.4 ± 10.3%

## CO/N=C1\CCC(=O)N(CC(=O)O)c2ccccc21 [compound 22, (E/Z)-2-(5-(Methoxyimino)-2-oxo-2,3,4,5-tetrahydro-1H-benzo[b]azepin-1-yl)acetic acid]
[2]
  activity at 30 µM: 96.7 ± 5.2%
